Reference: patent US20200315540A1, “TREATMENT OF A DISEASE OF THE GASTROINTESTINAL TRACT WITH AN IL-1 INHIBITOR” (Progenity, Inc., priority 2016, published 2020)

Test: Tissue, plasma and GI content pharmacokinetics of tacrolimus, oral vs intra-cecal ingestible device delivery in swine
Type: in vivo
Conditions: intra-cecally vs orally administered, 12 hours post-dose, FIG. 76
Description: No further randomization procedure was employed.
Animals in Group 1 received an ingestible device containing 0.8 mL of vehicle solution (80% alcohol, 20% HCO-60). Animals in Group 2 received orally […] liquid formulation of tacrolimus at 4 mg/0.8 mL per animal (Prograf: 5 mg/mL). Animals in Group 3 received intra-cecally an ingestible device containing tacrolimus at 1 mg in 0.8 mL per ingestible device. Animals in Group 4 received intra-cecally an ingestible device containing tacrolimus at 2 mg in 0.8 mL per ingestible device. Animals in Group 5 received intra-cecally an ingestible device containing tacrolimus at 4 mg in 0.8 mL per ingestible device. […]
Approximately 200˜400 mg of rectal content were collected, if available, with a fecal swab (Copan Diagnostics Nylon Flocked Dry Swabs, 502CS01). The fecal swab was pre-weighed and weighed after collection in the collection tube (Sterile Tube and Cap No Media, PFPM913S), and the sample weight was recorded. […]
For tissue necropsy, small intestine fluid and cecal fluid were collected separately from all the animals into two separate square plastic bottles, and stored at −20° C. The length and diameter of the cecum and the colon was measured from one animal in each group and recorded for reference. […] All samples were weighed, and the tissue sample weights were recorded. […]

mean concentration in the cecum tissue and the proximate colon tissue: higher
SMILES: C=CC[C@@H]1/C=C(\C)C[C@H](C)C[C@H](OC)[C@H]2O[C@@](O)(C(=O)C(=O)N3CCCC[C@H]3C(=O)O[C@H](/C(C)=C/[C@@H]3CC[C@@H](O)[C@H](OC)C3)[C@H](C)[C@@H](O)CC1=O)[C@H](C)C[C@@H]2OC [tacrolimus]
